Test results published in patent US12533321B2, “Polypeptide formulations for oral delivery” (Bhami's Research Laboratory, Pvt. Ltd., priority 2022, dated 2026).

Key:
[1] = Pharmacokinetics of Octreotide in albumin crystal sugar truffle shell vs IV, plasma Octreotide by ELISA; type: in vivo, Wistar Rats; details: 0.1 mg
Text: Rats in the oral treatment group was fasted overnight. […] The time of dosage of each animal was noted. […] Biosystems protocol.

[2] = Pharmacokinetics of PTH (1-34) in albumin crystal sugar truffle shell vs IV, plasma PTH (1-34) by ELISA; type: in vivo, Minipigs (Yorkshire); details: 0.04 mg
Text: The PTH (1-34) was processed to prepare albumin microparticles containing PTH according to the procedure mentioned under Example 4. The microparticle of albumin crystals containing PTH was then lyophilized after washing with cold isopropanol.
(§1) Pigs in the oral treatment group was either fasted overnight or fed prior to the test sample administration. […] The time of dosage of each animal was noted. […] An antibody, anti-PTH (1-34) was pre-coated onto a 96-well plate. […] The intensity of the yellow color is proportional to the PTH (1-34) amount bound on the plate.

[3] = Pharmacokinetics of PTH (1-34) in albumin crystal capsule (Vitamin E) vs IV, plasma PTH (1-34) by ELISA; type: in vivo, Minipigs (Yorkshire); details: 0.04 mg
Text: The PTH (1-34) was processed to prepare albumin microparticles containing PTH according to the procedure mentioned under Example 4. The microparticle of albumin crystals containing PTH was then lyophilized after washing with cold isopropanol. […] The capsule was then closed.
as §1

[4] = female, Yorkshire, minipig, plasma, iv
[5] = female, Yorkshire, minipig, plasma, iv, IV, read-out: AUC 0-inf_pred
[6] = female, Yorkshire, minipig, plasma, iv, IV, read-out: AUC 0-t
[7] = female, Yorkshire, minipig, plasma, iv, IV, read-out: AUC t-inf_obs
[8] = female, Yorkshire, minipig, plasma, iv, IV, read-out: AUC t-inf_pred
[9] = female, Yorkshire, minipig, plasma, iv, IV, read-out: MRT 0-inf_obs
[10] = female, Yorkshire, minipig, plasma, iv, IV, read-out: MRT 0-inf_pred
[11] = female, Yorkshire, minipig, plasma, iv, read-out: MRT 0-t
[12] = female, Yorkshire, minipig, plasma, iv, read-out: t½ (converted)

C[C@@H](O)[C@@H]1NC(=O)[C@H](CCCCN)NC(=O)[C@@H](Cc2c[nH]c3ccccc23)NC(=O)[C@H](Cc2ccccc2)NC(=O)[C@@H](NC(=O)[C@H](N)Cc2ccccc2)CSSC[C@@H](C(=O)N[C@H](CO)[C@@H](C)O)NC1=O (relative stereo) [Octreotide, L-cysteinamide, D-phenylalanyl-L-cysteinyl-L-phenylalanyl-D-tryptophyl-L-lysyl-L-threonyl-N-[2-hydroxy-1-(hydroxy-methyl)propyl]-, cyclic (2→7)-disulfide; [R-(R*,R*)]]
Cl_pred ([1]; IV): 6.036E−06 (mg)/(ng/ml)/h
Vss_obs ([1]; IV): 0.0001111 (mg)/(ng/ml)
Vss_pred ([1]; IV): 0.0001107 (mg)/(ng/ml)
Vz_obs ([1]; IV): 0.0001106 (mg)/(ng/ml)
Vz_pred ([1]; IV): 0.0001118 (mg)/(ng/ml)
C0 ([1]; male, Wistar, rat, in vivo, iv): 3830 ng/mL
Cmax ([1]; male, Wistar, rat, in vivo, iv): 5390 ng/mL
Tmax ([1]; male, Wistar, rat, in vivo, iv): 2 h
AUC(0-inf) ([1]; male, Wistar, rat, in vivo, iv, IV, read-out: AUC 0-inf_obs): 105000 ng·h/mL
AUC(0-inf) ([1]; male, Wistar, rat, in vivo, iv, IV, read-out: AUC 0-inf_pred): 104000 ng·h/mL
AUC(0-t) ([1]; male, Wistar, rat, in vivo, iv, IV, read-out: AUC 0-t): 74200 ng·h/mL
AUC(0-t) ([1]; male, Wistar, rat, in vivo, iv, IV, read-out: AUC t-inf_obs): 30500 ng·h/mL
AUC(0-t) ([1]; male, Wistar, rat, in vivo, iv, IV, read-out: AUC t-inf_pred): 29400 ng·h/mL
MRT inf ([1]; male, Wistar, rat, in vivo, iv, IV, read-out: MRT 0-inf_obs): 18.6 h
MRT inf ([1]; male, Wistar, rat, in vivo, iv, IV, read-out: MRT 0-inf_pred): 18.3 h
MRT last ([1]; male, Wistar, rat, in vivo, iv, read-out: MRT 0-t): 8.78 h
half-life ([1]; male, Wistar, rat, in vivo, iv, read-out: t½ (converted)): 12.8 h
level at 0 h ([1]; male, Wistar, rat, in vivo, 0 h, IV): 3830 ± 1290 ng/mL
level at 0.25 h ([1]; male, Wistar, rat, in vivo, 0.25 h, IV): 4390 ± 559 ng/mL
level at 0.5 h ([1]; male, Wistar, rat, in vivo, 0.5 h, IV): 3170 ± 924 ng/mL
level at 1 h ([1]; male, Wistar, rat, in vivo, 1 h, IV): 4130 ± 1170 ng/mL
level at 2 h ([1]; male, Wistar, rat, in vivo, 2 h, IV): 5390 ± 356 ng/mL
level at 4 h ([1]; male, Wistar, rat, in vivo, 4 h, IV): 5150 ± 704 ng/mL
level at 8 h ([1]; male, Wistar, rat, in vivo, 8 h, IV): 3160 ± 1390 ng/mL

CC[C@H](C)[C@H](NC(=O)[C@H](CCC(=O)O)NC(=O)[C@H](CO)NC(=O)[C@@H](NC(=O)[C@@H](N)CO)C(C)C)C(=O)N[C@@H](CCC(N)=O)C(=O)N[C@@H](CC(C)C)C(=O)N[C@@H](CCSC)C(=O)N[C@@H](Cc1cnc[nH]1)C(=O)N[C@@H](CC(N)=O)C(=O)N[C@@H](CC(C)C)C(=O)NCC(=O)N[C@@H](CCCCN)C(=O)N[C@@H](Cc1cnc[nH]1)C(=O)N[C@@H](CC(C)C)C(=O)N[C@@H](CC(N)=O)C(=O)N[C@@H](CO)C(=O)N[C@@H](CCSC)C(=O)N[C@@H](CCC(=O)O)C(=O)N[C@@H](CCCN=C(N)N)C(=O)N[C@H](C(=O)N[C@@H](CCC(=O)O)C(=O)N[C@@H](Cc1c[nH]c2ccccc12)C(=O)N[C@@H](CC(C)C)C(=O)N[C@@H](CCCN=C(N)N)C(=O)N[C@@H](CCCCN)C(=O)N[C@@H](CCCCN)C(=O)N[C@@H](CC(C)C)C(=O)N[C@@H](CCC(N)=O)C(=O)N[C@@H](CC(=O)O)C(=O)N[C@H](C(=O)N[C@@H](Cc1cnc[nH]1)C(=O)N[C@@H](CC(N)=O)C(=O)N[C@@H](Cc1ccccc1)C(=O)O)C(C)C)C(C)C [PTH (1-34)]
Mean PTH (1-34) levels ([2]; 0 h, IV): 1429.01 ± 104.61 pg/mL
Mean PTH (1-34) levels ([2]; 0.08 h, IV): 2822.98 ± 196.91 pg/mL
Mean PTH (1-34) levels ([2]; 0.16 h, IV): 2898.29 ± 307.43 pg/mL
Mean PTH (1-34) levels ([2]; 0.5 h, IV): 1619.38 ± 229.76 pg/mL
Mean PTH (1-34) levels ([2]; 1 h, IV): 421.23 ± 126.34 pg/mL
Mean PTH (1-34) levels ([2]; 2 h, IV): 164.93 ± 39.5 pg/mL
Mean PTH (1-34) levels ([2]; 4 h, IV): 90.76 ± 7.55 pg/mL
Mean PTH (1-34) levels ([2]; 12 h, IV): 15.43 ± 1.57 pg/mL
AUMC 0-inf_obs ([2]; IV): 4903.835 pg/ml * h^2
AUMC 0-inf_pred ([2]; IV): 4888.052 pg/ml * h^2
AUMC 0-t ([2]; IV): 3822.072 pg/ml * h^2
AUMC 0-t/0-inf_obs ([2]; IV): 0.779
AUMC 0-t/0-inf_pred ([2]; IV): 0.782
AUMC t-inf_obs ([2]; IV): 1081.763 pg/ml * h^2
AUMC t-inf_pred ([2]; IV): 1065.980 pg/ml * h^2
Cl_obs ([2]; IV): 0.000 (mg)/(pg/ml)/h
Cl_pred ([2]; IV): 0.000 (mg)/(pg/ml)/h
Clast_pred ([2]; IV): 0.015205 ng/mL
Lambda_z ([2]; IV): 0.233 h⁻¹
Tlast ([2]; IV): 12.000 h
C0 [2, 4]: 1.43 ng/mL
Cmax [2, 4]: 2.9 ng/mL
Tmax [2, 4]: 9.6 min
AUC(0-inf) ([2]; female, Yorkshire, minipig, plasma, iv, IV, read-out: AUC 0-inf_obs): 2.72 ng·h/mL
AUC(0-inf) [2, 5]: 2.72 ng·h/mL
AUC(0-t) [2, 6]: 2.65 ng·h/mL
AUC(0-t) [2, 7]: 0.0664 ng·h/mL
AUC(0-t) [2, 8]: 0.0654 ng·h/mL
MRT inf [2, 9]: 1.8 h
MRT inf [2, 10]: 1.8 h
level at 12 h ([2]; female, Yorkshire, minipig, plasma, iv, read-out: Clast_obs): 0.0154 ng/mL
MRT last [2, 11]: 1.44 h
half-life [2, 12]: 2.98 h
AUMC 0-inf_obs ([3]; IV): 4903.835 pg/ml * h^2
AUMC 0-inf_pred ([3]; IV): 4888.052 pg/ml * h^2
AUMC 0-t/0-inf_obs ([3]; IV): 0.779
AUMC 0-t/0-inf_pred ([3]; IV): 0.782
AUMC t-inf_pred ([3]; IV): 1065.980 pg/ml * h^2
AUMC_0-t ([3]; IV): 3822.072 pg/ml * h^2
AUMC_t-inf obs ([3]; IV): 1081.763 pg/ml * h^2
Cl_obs ([3]; IV): 0.000 (mg)/(pg/ml)/h
Cl_pred ([3]; IV): 0.000 (mg)/(pg/ml)/h
Clast_obs ([3]; IV): 0.01543 ng/mL
Clast_pred ([3]; IV): 0.015205 ng/mL
Lambda_z ([3]; IV): 0.233 h⁻¹
Tlast ([3]; IV): 12.000 h
C0 [3, 4]: 1.43 ng/mL
Cmax [3, 4]: 2.9 ng/mL
Tmax [3, 4]: 9.6 min
AUC(0-inf) ([3]; female, Yorkshire, minipig, plasma, iv, IV, read-out: AUC 0-inf obs): 2.72 ng·h/mL
AUC(0-inf) [3, 5]: 2.72 ng·h/mL
AUC(0-t) [3, 6]: 2.65 ng·h/mL
AUC(0-t) [3, 7]: 0.0664 ng·h/mL
AUC(0-t) [3, 8]: 0.0654 ng·h/mL
MRT inf [3, 9]: 1.8 h
MRT inf [3, 10]: 1.8 h
MRT last [3, 11]: 1.44 h
half-life [3, 12]: 2.98 h
level at 0 h ([3]; female, Yorkshire, minipig, plasma, 0 h, IV, read-out: Mean PTH (1-34) levels): 1.43 ± 0.105 ng/mL
level at 0.08 h ([3]; female, Yorkshire, minipig, plasma, 0.08 h, IV, read-out: Mean PTH (1-34) levels): 2.82 ± 0.197 ng/mL
level at 0.16 h ([3]; female, Yorkshire, minipig, plasma, 0.16 h, IV, read-out: Mean PTH (1-34) levels): 2.9 ± 0.307 ng/mL
level at 0.5 h ([3]; female, Yorkshire, minipig, plasma, 0.5 h, IV, read-out: Mean PTH (1-34) levels): 1.62 ± 0.23 ng/mL
level at 1 h ([3]; female, Yorkshire, minipig, plasma, 1 h, IV, read-out: Mean PTH (1-34) levels): 0.421 ± 0.126 ng/mL
level at 2 h ([3]; female, Yorkshire, minipig, plasma, 2 h, IV, read-out: Mean PTH (1-34) levels): 0.165 ± 0.0395 ng/mL
level at 4 h ([3]; female, Yorkshire, minipig, plasma, 4 h, IV, read-out: Mean PTH (1-34) levels): 0.0908 ± 0.00755 ng/mL
level at 12 h ([3]; female, Yorkshire, minipig, plasma, 12 h, IV, read-out: Mean PTH (1-34) levels): 0.0154 ± 0.00157 ng/mL
